Assay results as given in article PMC9088311, “Cyclic Thiosulfonates for Thiol-Mediated Uptake: Cascade Exchangers, Transporters, Inhibitors” (JACS Au, 2022).
Values after ≈ are worked out from the molar mass of the structure shown. Values joined by “and” are separate entries in the source; they are usually repeats but may differ in a detail not shown here. Equal values may be shown once. Read-outs that look alike come from different tables or passages of the source.

Assays:
[1] = system: trypsin; experiment: Trypsin inhibition (preliminary, not shown); assay type: biochemical; settings: 10 μM; preliminary results, not shown
[2] = biological target: cathepsin B (Homo sapiens, UniProt P07858); experiment: Cathepsin B inhibition (preliminary, not shown); assay type: biochemical; settings: 10 μM; preliminary results
[3] = biological target: cathepsin L (Homo sapiens, UniProt P07711); experiment: Cathepsin L inhibition (preliminary, not shown); assay type: biochemical; settings: 10 μM; preliminary results
[4] = system: HK cells, transporter 28; experiment: HCHT imaging: inhibition of cytosolic delivery of CTO transporter 28; assay type: cell-based, Human; settings: inhibitor 1 h; for IC15: read-out: MIC (concentration needed to reach 15% inhibition), transporter 28 5 μM
Method: (§1) Uptake inhibition was measured by the automated HCHT imaging used already to elaborate on cytosolic delivery. For inhibitor screening, HK cells in multiwell plates were incubated with increasing concentrations of inhibitors, followed by fluorescent transporters 28, 31, and 32 at a constant concentration. […] If inhibitors are removed before the addition of transporters 28, 31, and 32, the method is referred to as “pre-incubation”. This is of interest to minimize exchange between the transporter and the inhibitor but is often problematic because dynamic covalent exchange between the inhibitor and cellular target can also be reversed and thus lost. The complementary “co-incubation” operates without inhibitor removal before the addition of transporters 28, 31, and 32.
(§2) 536/40 nm emission filter, and red with 531/40 nm excitation filter and 593/40 nm emission […]
(§3) 4.3. HCHT Inhibitor Screening
(§4) Pre-Incubation Method. As in ref. S1. HeLa Kyoto cells were seeded at 8 ×10^4 cells/mL in FluoroBrite DMEM + 10% FBS on μ-Plate 96-well Black ibiTreat sterile and incubated at 37 °C with 5% CO 2 for 24 h. Then, the medium was removed and cells were washed with PBS ([…]), fresh FluoroBrite DMEM medium (4 × 150 μL/well) was added into the cells using a plate washer (Biotek EL406®), keeping a final volume of 135 μL/well. Different concentrations of the inhibitors were prepared by serial dilution with 10% final concentration DMSO (10× in PBS). The solution of compounds 4 and 33 was prepared final DMSO concentration of 10% in each dilution (10× in PBS). These inhibitor solutions (10× final concentration), transporter 28 (10× in DMEM), transporters 31 and 32 (10× in PBS) a solution of HOE (100 μg/mL) and PI (10 μg/mL) in PBS were prepared freshly in a 96-well V-bottom plate before adding to the cells. The inhibitor solutions from the V-bottom plate were added to the cells (15 μL/well) in a final volume of 150 μL/well using an electronic multichannel pipette and cells were incubated for 1 h at 37 °C with 5% CO 2. After this incubation, cells were washed again with PBS and DMEM using the plate washer (in the way mentioned above), and transporter 28 , 31 or 32 from the V-bottom plate was added (15 μL/well) to the cells in a final volume of 150 μL/well. A final concentration of each transporter 28 , 31 and 32 was 5 μM, 10 μM and 0.5 μM, respectively, except for the control wells, where only PBS was added (15 μL/well). Cells treated with transporter 28 or 31 were incubated for 30 min, and cells treated with 32 were incubated for 2 h at 37 °C with 5% CO 2. After that, the cells were washed with PBS and DMEM using the plate washer, and the solution of Hoechst 33342 and PI from the V-bottom plate was added (15 μL/well) to the cells in a final volume of 150 μL/well. After 15 min of incubation at 37 °C with 5% CO 2, the cells were washed and kept in clean FluoroBrite
(§5) DMEM. For live cell imaging, samples were kept at 37 °C with 5% CO 2 during the microscope imaging. The distribution of fluorescence stained cells was analyzed without fixing using an […]

[5] = system: HeLa Kyoto cells; experiment: Relative viability (HOE/PI) in HCHT screening
Method: One advantage of HCHT imaging of cellular uptake compared to flow cytometry[38],[42],[43] is that it simultaneously gives information on toxicity and intracellular localization. […] Information on the intracellular localization of reporters can be quantified through segmentation of cellular compartments stained with specific markers.[52]
as §1
Relative cell viability ( RV) for each condition in the presence of inhibitors was calculated […]
of the relative cell viability ( RVrel) to the concentration of inhibitors ( cinhibitor ) was plotted and fitted with Equation (S19) to retrieve the concentration causing 50% cell growth inhibition (RV50) value and the Hill coefficient ( n).

[6] = in vitro; settings: human
[7] = Dynamic covalent ring opening with thiol 10, 1H NMR kinetics; assay type: physicochemical; settings: pD 2.7
Method: The dynamic covalent opening of CTO 3 with thiols yields product 9 with a disulfide and a sulfinate (Figure 3B). Consistent with short chalcogen bonds found in silico, the opening of CTO 3 was instantaneous on an NMR timescale with most thiols. To decelerate ring opening, bulky thiols were considered in combination with lowered pH to deactivate the nucleophile. With N-Ac-D-penicillamine 10, the opening of 5 mM CTO 3 in phosphate buffer/DMSO-d6 9:1 was still immediate at pD 6.7 but became detectable in ^1H NMR spectroscopy kinetics under more acidic conditions. The ring-opening rate constants k^O were estimated by fitting the initial velocities to second-order kinetics. Only lower bound rates were approximated from the earliest determined substrate conversions when reactions were still too fast despite the unfavorable conditions. At pD 5.4, dynamic covalent ring opening of CTO 3 with equimolar tertiary thiol 10 occurred with k^O > 0.49 M^–1 s^–1 and equilibrated at K = 6.0 × 10^3 M^–1 (Table 1, entry 1, Figures S4 and S5). At pD 2.7, further deceleration to k^O = 0.10 M^–1 s^–1 shifted the equilibrium to K = 500 M^–1 (Table 1, entry 2, Figures S6 and S7). […] At equilibrium, the concentration of thiol 10 further decreased slowly due to oxidation into the homodimer (Figure 3C, diamonds).
Equilibrium constants for reactions with two reactants A and B and a product C are […]
3.1.1. Dynamic Covalent Ring Opening with Thiols
General procedure A (at 5 mM): To a solution of deuterated sodium phosphate (200 mM in D 2O, pD 2.7 or 5.4, 180 mM final concentration), a stock solution of substrate (0.10 M in DMSO-d6, 5.0 mM final concentration) was added and stirred. Then a stock solution of 10 (0.10 M in DMSO- d6, 5.0 mM final concentration) was added and vigorously stirred at room temperature. The solution was transferred immediately to an NMR tube and NMR data were recorded repeatedly. The concentration of the substrate or thiol at each time plot was calculated by comparing the integrals of the peaks indicated with arrows in the figures, and plotted. The data points were fitted to obtain k1 with the Equation (S6) or (S7) using Graphpad Prism.
General procedure B (at 2 mM): To a solution of deuterated sodium phosphate (200 mM in D 2O, pD 2.7 or 5.4, 180 mM final concentration), DMSO- d6 (10% DMSO- d6 in the reaction mixture) and a stock solution of substrate (0.10 M in DMSO- d6, 2.0 mM final concentration) were added and stirred. Then a stock solution of 10 (0.10 M in DMSO- d6, 2.0 mM final concentration) was added and vigorously stirred at room temperature. The solution was transferred immediately to an NMR tube and NMR data were recorded repeatedly. The concentration of the substrate or thiol at each time plot was calculated by comparing the integrals of the peaks indicated with arrows in the figures, and plotted. The data points were fitted to obtain k1 with the Equation (S6) or (S7) using Graphpad Prism.
General procedure C (for thiosulfinates): To a solution of deuterated sodium phosphate (200 mM in D 2O, pD 5.4, 170 mM final concentration), a stock solution of substrate (0.10 M in DMSO- d6, 5.0 mM final concentration) was added and stirred. Then a stock solution of 10 (0.10 M in DMSO- d6, 10 mM final concentration) was added and vigorously stirred at room […]
data points were fitted to obtain k1 with the Equation (S14) or (S16) using Graphpad Prism. […]
3.1.2. Dependence of Ring Opening on Proticity
A mixture of deuterated phosphoric acid and NaOD (30% in D 2O), which gave pD 2.7 in D2O, was used as buffer in all solvent mixtures. To a solution of deuterated sodium phosphate (20 mM final concentration) in a mixture of D 2O and DMSO- d6 (540 μL, final D 2O content: […]
concentration) was added and stirred. Then a stock solution of 10 (0.10 M in DMSO- d6, 5.0 mM final concentration) was added and vigorously stirred at room temperature. The solution was transferred immediately to an NMR tube and 1H NMR data were recorded repeatedly. […]

[8] = system: HK cells, transporter 31; experiment: HCHT imaging: inhibition of cytosolic delivery of ETP transporter 31; assay type: cell-based, Human; settings: inhibitor 1 h; for IC50 / IC15: Homo sapiens; for IC50: read-out: IC50 (concentration needed to reach 50% inhibition), transporter 31 10 μM; for IC15: read-out: MIC (concentration needed to reach 15% inhibition), transporter 31 10 μM; for MIC (concentration needed to reach 15% inhibition): transporter 31 10 μM
Method: as §1, §2, §3, §4, §5

[9] = system: HK cells, transporter 32; set-up: method as in PMID 34173696; key to inhibition of OPS 32 uptake (heatmap): –: −: inactive; ++: qualitative inhibition of SC2 uptake; settings: cited from earlier work
[10] = Homo sapiens, 1 h, read-out: IC50 (concentration needed to reach 50% inhibition), transporter 28 5 μM, co-incubation (C)
[11] = Homo sapiens, 1 h, co-incubation (C)
[12] = with transporter 28, co-incubation (C)
[13] = transporter 28 5 μM, co-incubation (C)
[14] = Homo sapiens, 1 h, pre-incubation (P)
[15] = Homo sapiens, read-out: IC50 (concentration needed to reach 50% inhibition), transporter 28 5 μM, pre-incubation (P)
[16] = transporter 28 5 μM, pre-incubation (P)

Chain of cathepsin L (P07711 114-333, species assumed): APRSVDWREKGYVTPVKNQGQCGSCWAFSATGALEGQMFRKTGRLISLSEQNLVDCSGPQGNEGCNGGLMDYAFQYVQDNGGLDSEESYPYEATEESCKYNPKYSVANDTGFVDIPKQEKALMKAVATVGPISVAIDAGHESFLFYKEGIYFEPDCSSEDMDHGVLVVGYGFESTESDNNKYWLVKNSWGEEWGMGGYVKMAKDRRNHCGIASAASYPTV

Row | SMILES | IC50 [4, 10] | IC15 [4, 11] | RV50 (concentration needed to lower relative viability by 50%) [5, 12] | viability at 7 h, 10 µM [6] | IC50 ([8]; 1 h, co-incubation (C)) | IC15 ([8]; 1 h, co-incubation (C)) | viability at 7 h, 5 µM [6] | MIC (concentration needed to reach 15% inhibition) [4, 13] | IC15 [4, 14] | IC50 [4, 15] | MIC (concentration needed to reach 15% inhibition) [4, 16] | other results
1 | CC(C)(C)[Si](C)(C)OC1CS(=O)(=O)SCC1OC(=O)NCCCCCCNC(=O)OC1CSS(=O)(=O)CC1O[Si](C)(C)C(C)(C)C (centres unmarked) [Compound 4] | 16 ± 7 µM | 0.3 µM | >5 µM | 103% |  |  |  |  |  |  |  | inhibition of trypsin [1]: > 80%; inhibition of cathepsin B (in words) [2]: neither cathepsin L nor B; inhibition of cathepsin L (in words) [3]: neither cathepsin L nor B; IC50 ([4]; read-out: IC50 (concentration needed to reach 50% inhibition), transporter 28 5 μM, co-incubation (C)): ~15 µM
2 | CC1(C)O[C@H]2CSS(=O)(=O)C[C@H]2O1 [Compound 13] |  |  |  |  | > 10 µM | > 10 µM | 125 ± 5% |  |  |  |  | k^O, rate constant of ring opening (or equivalent for acyclic controls) ([7]; equimolar 10, rt, 90% D2O, Na+ phosphate 180 mM, substrate 2 mM): 2.3 M^–1 s^–1; krel^O, rate constant of ring opening relative to 3 ([7]; 90% D2O, 2 mM): 23; ring-opening rate relative to acyclic control 14 (fold) ([7]; with thiol 10, 2 mM): about 4 ×; RV50 (concentration needed to lower relative viability by 50%) ([5]; with transporter 31, co-incubation (C)): 29 ± 6 µM
3 | O=C(NCCCCCCNC(=O)O[C@H]1CSS(=O)(=O)C[C@H]1OCc1ccccc1)O[C@H]1CSS(=O)(=O)C[C@H]1OCc1ccccc1 [Compound 33] | > 5 µM | 1.3 µM | >5 µM | 107% |  |  |  | 1 µM |  |  |  | 
4 | O=C(NCCCCCCNC(=O)O[C@H]1CSS(=O)(=O)C[C@H]1O)O[C@H]1CSS(=O)(=O)C[C@H]1O [Compound 41] | 8 µM | 1 µM | >50 µM |  |  |  | 100% | 1 µM |  |  |  | 
5 | CC(C)(C)[Si](C)(C)O[C@H]1CS(=O)(=O)SC[C@H]1OC(=O)NCCNC(=O)CC(O)(CC(=O)NCCNC(=O)O[C@H]1CSS(=O)(=O)C[C@H]1O[Si](C)(C)C(C)(C)C)C(=O)NCCNC(=O)O[C@@H]1CSS(=O)(=O)C[C@@H]1O[Si](C)(C)C(C)(C)C (some centres unmarked) [Compound 42] |  |  |  | 107% |  |  |  |  | 1.8 µM | 5.1 ± 0.4 µM | 2 µM (≈ 2.58 µg/mL) | IC50 ([4]; read-out: IC50 (concentration needed to reach 50% inhibition), transporter 28 5 μM, pre-incubation (P)): 5 µM; RV50 (concentration needed to lower relative viability by 50%) ([5]; with transporter 28, pre-incubation (P)): 22 ± 3 µM and 22 µM
6 | O=C(O)Cn1[se]c2ccccc2c1=O [Compound 45, reference compound] |  |  |  |  | 8 µM | 2.2 µM |  |  | 1.2 µM | 8 µM | 1 µM (≈ 0.256 µg/mL) | IC15 ([8]; 1 h, pre-incubation (P)): < 1 µM; IC50 ([8]; pre-incubation (P)): 10 µM; MIC (concentration needed to reach 15% inhibition) ([8]; co-incubation (C)): 2 µM; MIC (concentration needed to reach 15% inhibition) ([8]; pre-incubation (P)): <1 µM; inhibition of OPS 32 uptake (heatmap) ([9]; pre-incubation conditions): –; IC50 ([9]; read-out: IC50 (concentration needed to reach 50% inhibition), transporter 32 0.5 or 1 μM, pre-incubation (P)): > 100 µM; MIC (concentration needed to reach 15% inhibition) ([9]; transporter 32 0.5 or 1 μM, pre-incubation (P)): >100 µM; viability at 7 h, 50 µM [6]: 81%
